For orientation: logP means the decadic logarithm of the partition coefficient of the neutral form, usually between octanol and water.

Consider two compounds from article PMC2883612 (Journal of nuclear medicine : official publication, Society …, 2009).

Series [1] can be described thus: Pharmacologic effects and safety tests in human subjects after PET. It is filed as in vivo.
The nature of series [2]: Plasma metabolite analysis and plasma input function. In kind it is in vivo. The following applies: human; for metabolites in plasma radioactivity: 30 min after injection; for plasma clearance time constant: monoexponential fitting from 20 to 60 min.
For series [3] the following is noted: cited from earlier work.
Series [4] concerns TSPO. As to conditions: rat model of neurodegeneration; cited from earlier work.
Series [5] has as its system TSPO. The following applies: in vivo; cited from earlier work.
Series [6] concerns the target TSPO (Homo sapiens, UniProt P30536). The series can be described thus: Brain PET with arterial input, compartmental modeling. As to conditions: 1-tissue model, mean ± SD.

Chain of TSPO (Homo sapiens, UniProt P30536) (P30536 whole entry): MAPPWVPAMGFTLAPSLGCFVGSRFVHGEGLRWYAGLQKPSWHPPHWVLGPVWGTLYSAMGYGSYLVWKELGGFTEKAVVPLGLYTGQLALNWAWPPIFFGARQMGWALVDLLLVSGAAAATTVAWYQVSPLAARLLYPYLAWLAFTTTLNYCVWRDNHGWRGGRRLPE

Take `CCN(CC)C(=O)Cc1c(-c2ccc(OC)cc2)nn2c(C)cc(C)nc12` [^11C-DPA-713, ^11C-N,N-diethyl-2-[2-(4-methoxyphenyl)-5,7-dimethyl-pyrazolo[1,5-a]pyrimidin-3-yl]-acetamide]: in series [1] (healthy human subjects), the “blood tests before and after the scan” value was “no abnormalities or interval changes”; the “side effects after the PET scans” value is recorded as “No side effects were reported”. Also, the pharmacologic effects entry in series [1] (healthy human subjects, intravenous bolus) is listed as “No pharmacologic effects were noted”. The “12-lead ECGs” value in series [1] (within 1 wk before and after injection) is on record as “no abnormalities or interval changes”. Also, in series [2], the “metabolites in plasma radioactivity” value was found to be 20% and the “plasma clearance time constant” value came to 42 min. For the same compound, the log partition coefficient (logP) in series [3] is given as 2.4. Besides, the “specificity in discriminating between normal and lesioned brain, vs ^11C-R-PK11195” value in the series with TSPO [4] is reported as “greater specificity”.
In the case of `CCC(C)N(C)C(=O)c1cc2ccccc2c(-c2ccccc2Cl)n1` (stereo not shown) [^11C-R-PK11195], the “metabolites in plasma radioactivity” value in series [2] amounted to 40%. Further, the “plasma clearance time constant” value in series [2] was determined as 37 min. Moreover, the “blocking effect on ^11C-DPA-713 brain uptake” value in the series with TSPO [5] is given as “potent blockade of brain uptake”. In addition, the K1 value at TSPO [6] (Caudate) is 0.020 ± 0.012 (24.9); at TSPO [6] (Cerebellar cortex) it was 0.025 ± 0.016 (12.5); at TSPO [6] (Frontal), 0.023 ± 0.013 (14.6); on TSPO [6] (Pons), 0.019 ± 0.016 (23.1); at TSPO [6] (Putamen) it was 0.026 ± 0.015 (10.3); on TSPO [6] (Temporal), 0.016 ± 0.011 (22.0). In addition, the K1 value on TSPO [6] (Thalamus) is 0.025 ± 0.013 (12.0). Besides, the VT value at TSPO [6] (Caudate) is 0.25 ± 0.09 (23.1); at TSPO [6] (Cerebellar cortex), 0.32 ± 0.08 (11.9); on TSPO [6] (Frontal), 0.33 ± 0.10 (13.9); at TSPO [6] (Pons), 0.42 ± 0.13 (33.3); on TSPO [6] (Putamen), 0.34 ± 0.06 (9.5); on TSPO [6] (Temporal), 0.40 ± 0.08 (29.4). The VT value on TSPO [6] (Thalamus) is listed as 0.42 ± 0.07 (11.9).
